Experimental data published in patent US20260085073A1, “PYRAZOLYLCARBOXAMIDE COMPOUNDS AND THEIR USE IN THERAPY” (Hotspot Therapeutics, Inc., priority 2022, published 2026).

biological target: T1, MALT1 (Homo sapiens, UniProt Q9UDY8); assay: MALT1 inhibition assay (MALT-1 Fluorogenic Peptide Cleavage Assay, Ac-LRSR-AMC substrate); assay type: biochemical; settings: Avi-tagged FL MALT-1, 30 min pre-incubation, 90 min reaction at room temperature, fluorescence intensity
T1 construct: Avi-tagged FL MALT-1 (Pharmaron, stored at −70° C.); Avi-tag
T1 sequence (Q9UDY8 1-824): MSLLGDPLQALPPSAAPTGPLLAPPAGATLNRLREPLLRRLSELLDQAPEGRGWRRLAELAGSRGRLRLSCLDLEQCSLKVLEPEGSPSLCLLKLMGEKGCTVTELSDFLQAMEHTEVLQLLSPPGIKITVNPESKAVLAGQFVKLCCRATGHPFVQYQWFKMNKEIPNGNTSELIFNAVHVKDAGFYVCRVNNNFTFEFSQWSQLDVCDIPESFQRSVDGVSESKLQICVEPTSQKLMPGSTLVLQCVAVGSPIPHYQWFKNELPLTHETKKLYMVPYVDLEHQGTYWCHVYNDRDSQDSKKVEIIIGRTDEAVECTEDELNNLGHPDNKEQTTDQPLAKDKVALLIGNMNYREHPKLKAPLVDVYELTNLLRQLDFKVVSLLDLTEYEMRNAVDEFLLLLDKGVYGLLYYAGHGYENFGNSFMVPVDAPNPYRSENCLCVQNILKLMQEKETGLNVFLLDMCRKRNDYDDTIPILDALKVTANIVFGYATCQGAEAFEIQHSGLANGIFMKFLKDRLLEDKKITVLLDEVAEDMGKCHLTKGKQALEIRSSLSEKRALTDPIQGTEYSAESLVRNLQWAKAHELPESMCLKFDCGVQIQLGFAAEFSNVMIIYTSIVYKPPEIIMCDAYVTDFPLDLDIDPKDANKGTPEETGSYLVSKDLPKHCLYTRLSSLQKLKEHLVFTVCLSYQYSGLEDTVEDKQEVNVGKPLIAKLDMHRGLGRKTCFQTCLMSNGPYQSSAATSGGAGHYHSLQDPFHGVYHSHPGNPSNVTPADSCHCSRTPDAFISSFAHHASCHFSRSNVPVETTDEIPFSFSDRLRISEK
Protocol: Example 71—MALT1 Inhibition Assay
Compounds were tested for ability to bind to MALT1.
Inhibition of MALT1 activity by the presence of small molecules was evaluated using MALT-1 Fluorogenic Peptide Cleavage Assay. The assay utilizes a quenched AMC-labelled peptide that contains the MALT-1 recognition sequence and cleavage site (LRSR). MALT-1 mediated cleavage of the peptide relieves the quenching and leads to an increase in fluorescence at excitation (342 nm) and emission (441 nm).
The following reagents were obtained commercially and used to prepare standard reagent formulations as further described below: N-2-hydroxyethylpiperazine-N-2-ethane sulfonic acid (HEPES) (1 M, pH 7.5, stored at 4° C.), sodium citrate (stored at RT), tris(2-carboxyethyl) phosphine hydrochloride (T-CEP) (500 mM, stored at −20° C.), ethylenediaminetetraacetic acid (EDTA) (500 mM, stored at RT), dimethylsulfoxide (DMSO, stored at RT), 3-[(3-cholamidopropyl)dimethylammonio]-1-propane sulphate (CHAPS) (stored at RT), dimethylsulfoxide (DMSO), DMSO (Fisher Scientific, stored at RT), Avi-tagged FL MALT-1 (Pharmaron, stored at −70° C.), Ac-LRSR-AMC Peptide (SM Biochemicals, stored at −20° C.), and ultrapure water (MILLI-QR).
The standard reagent formulations used in this assay were prepared and stored as follows. A 1.1 M solution of sodium citrate (161.3 g, 500 mL) was prepared and stored at room temperature. A 10% (w/v) CHAPS solution (2.0 g, 20 mL) was prepared and stored at 4° C. A 500 mM HEPES solution having pH of 6.89 was prepared from 200 mL of a 1 M HEPES solution having a pH of 7.5 using concentrated hydrochloric acid and brought to a final volume of 400 mL with MILLI-QR H2O. The substrate, 10 mM Ac-LRSR-AMC Peptide, was prepared (10 mg, 1.370 mL DMSO) and stored at −20° C.
Compounds were plated to provide a 2% DMSO final concentration using a ProxiPlate-384 Plus F Black 384-shallow well microplate. The assay-ready plates were equilibrated to room temperature. A reaction buffer (30 mL total volume) was prepared by combining HEPES (pH 6.89, 25 mM, 1.5 mL), sodium citrate (660 mM, 18.0 mL), T-CEP (1 mM, 0.06 mL), EDTA ([…], 0.06 mL), CHAPS (0.05%, 0.15 mL), DMSO (2%, 0.6 mL), and MILLI-QR H2O (10.23 mL; 9.63 mL when backfilled to 2% DMSO) followed by thorough mixing. DMSO was added only when compound plates had not been DMSO-backfilled to 2%.
MALT-1 was thawed and kept on ice. Peptide substrate was thawed on the bench under ambient conditions. A MALT-1 enzyme working stock was prepared from Avi-tagged FL MALT-1 (40 nM in a prepared reagent volume of 16.5 μL) and the reaction buffer (13.0 mL). MALT1 working stock (5 μL) was added to each well of the microplate. MALT-1 was pre-incubated with compounds for 30 minutes at room temperature.
Two substrate working stocks (Km and 10×Km) were prepared. The 1×Km substrate was prepared from Ac-LRSR-AMC Peptide (50 μM in a prepared reagent volume of 35.0 μL) and the reaction buffer (6.965 mL). The 10×Km substrate was prepared from Ac-LRSR-AMC Peptide (280 μM in a prepared reagent volume of 196.0 μL) and the reaction buffer (6.804 mL). The reaction was initiated by the addition of substrate working stock (5 μL, 50 μM) to Km plates and the addition of substrate working stock (5 μL 280 μM) to 10×Km plates. The plates were covered and incubated on the bench at room temperature for 90 minutes.
Fluorescence intensity was determined using a CLARIOstar microplate reader (BMG LABTECH) using the optimised AMC mode. Before taking readings, a 70% gain was applied on the neutral control well. Compound data were normalised to % Inhibition and used to plot sigmoidal concentration response curves to yield various parameters including IC50.

Structure (SMILES)	IC50
Cn1nc(-c2cccc3c2OCO3)c(C(F)(F)F)c1C(=O)Nc1cnc(-n2nccn2)c(C#N)c1 [Compound I-43]	< 500 nM
Cn1nc(-c2ccc(F)cc2Cl)c(C(F)(F)F)c1C(=O)Nc1ccnc(C(F)(F)F)c1 [Compound I-45]	< 500 nM
Cn1nc(-c2cccc3[nH]ncc23)c(C(F)(F)F)c1C(=O)Nc1ccnc(C(F)(F)F)c1 [Compound I-46]	500 to 2500 nM
Cn1nc(-c2cccc3occc23)c(C(F)(F)F)c1C(=O)Nc1ccnc(C(F)(F)F)c1 [Compound I-47]	< 500 nM
Cn1nc(-c2cccn(C)c2=O)c(C(F)(F)F)c1C(=O)Nc1ccnc(C(F)(F)F)c1 [Compound I-48]	> 10000 nM
Cn1nc(-c2c(Cl)ccc3c2OCO3)c(C(F)(F)F)c1C(=O)Nc1ccnc(C(F)(F)F)c1 [Compound I-49]	< 500 nM
Cn1nc(-c2ccc(F)c3c2OCO3)c(C(F)(F)F)c1C(=O)Nc1ccnc(C(F)(F)F)c1 [Compound I-50]	< 500 nM
Cn1nc(-c2cccc3c2OCCN3)c(C(F)(F)F)c1C(=O)Nc1ccnc(C(F)(F)F)c1 [Compound I-51]	> 10000 nM
COc1cccc(-c2nn(C)c(C(=O)Nc3ccnc(C(F)(F)F)c3)c2C(F)(F)F)c1OC [Compound I-52]	500 to 2500 nM
Cn1nc(-c2cccc3c2NCCO3)c(C(F)(F)F)c1C(=O)Nc1ccnc(C(F)(F)F)c1 [Compound I-54]	500 to 2500 nM
Cc1ccc2ncccc2c1-c1nn(C)c(C(=O)Nc2ccnc(C(F)(F)F)c2)c1C(F)(F)F [Compound I-55]	500 to 2500 nM
Cn1nc(-c2cccc3c2ccn3CC(=O)O)c(C(F)(F)F)c1C(=O)Nc1ccnc(C(F)(F)F)c1 [Compound I-57]	> 10000 nM
Cn1nc(-c2ccccc2Cl)c(C(F)(F)F)c1C(=O)Nc1ccnc(C(F)(F)F)c1 [Compound I-59]	< 500 nM
Cn1nc(-c2cccc3ncsc23)c(C(F)(F)F)c1C(=O)Nc1ccnc(C(F)(F)F)c1 [Compound I-60]	< 500 nM
Cn1nc(-c2cccc3cnn(C)c23)c(C(F)(F)F)c1C(=O)Nc1ccnc(C(F)(F)F)c1 [Compound I-61]	500 to 2500 nM
Cn1nc(-c2cccn3ncnc23)c(C(F)(F)F)c1C(=O)Nc1ccnc(C(F)(F)F)c1 [Compound I-64]	500 to 2500 nM
Cn1nc(-c2cccc3c2CNC3=O)c(C(F)(F)F)c1C(=O)Nc1ccnc(C(F)(F)F)c1 [Compound I-65]	< 500 nM
Cn1nc(-c2cccc3cnsc23)c(C(F)(F)F)c1C(=O)Nc1ccnc(C(F)(F)F)c1 [Compound I-67]	> 10000 nM
COc1cccc(-c2nn(C)c(C(=O)Nc3ccnc(C(F)(F)F)c3)c2C(F)(F)F)c1Cl [Compound I-68]	500 to 2500 nM
Cn1nc(-c2cnn3ccccc23)c(C(F)(F)F)c1C(=O)Nc1ccnc(C(F)(F)F)c1 [Compound I-69]	2500 to 10000 nM
Cn1nc(-c2ccnc3c2OCO3)c(C(F)(F)F)c1C(=O)Nc1ccnc(C(F)(F)F)c1 [Compound I-72]	500 to 2500 nM
Cn1nc(-c2csc3ccncc23)c(C(F)(F)F)c1C(=O)Nc1ccnc(C(F)(F)F)c1 [Compound I-73]	500 to 2500 nM
Cn1nc(-c2cc(O)ccc2Cl)c(C(F)(F)F)c1C(=O)Nc1ccnc(C(F)(F)F)c1 [Compound I-75]	500 to 2500 nM
Cn1nc(-c2cnc(N)c3ccccc23)c(C(F)(F)F)c1C(=O)Nc1ccnc(C(F)(F)F)c1 [Compound I-77]	500 to 2500 nM
Cn1nc(-c2cccc3c(N)nccc23)c(C(F)(F)F)c1C(=O)Nc1ccnc(C(F)(F)F)c1 [Compound I-78]	> 10000 nM
Cc1ncccc1-c1nn(C)c(C(=O)Nc2ccnc(C(F)(F)F)c2)c1C(F)(F)F [Compound I-79]	2500 to 10000 nM
Cn1nc(-c2cccc(S(C)(=O)=O)c2)c(C(F)(F)F)c1C(=O)Nc1ccnc(C(F)(F)F)c1 [Compound I-82]	2500 to 10000 nM
Cc1coc2c(-c3nn(C)c(C(=O)Nc4ccnc(C(F)(F)F)c4)c3C(F)(F)F)cccc12 [Compound I-84]	500 to 2500 nM
Cn1nc(N2CCCc3ccccc32)c(C(F)(F)F)c1C(=O)Nc1ccnc(C(F)(F)F)c1 [Compound I-85, 3-(3,4-dihydroquinolin-1 (2H)-yl)-1-methyl-4-(trifluoromethyl)-N-(2-(trifluoromethyl)pyridin-4-yl)-1H-pyrazole-5-carboxamide]	500 to 2500 nM

The remaining lines, values ahead:

IC50	Structure (SMILES)
500 to 2500 nM	Cn1nc(-c2cccc3c2OCCO3)c(C(F)(F)F)c1C(=O)Nc1ccnc(C(F)(F)F)c1 [Compound I-44]
500 to 2500 nM	Cn1nc(-c2cccc3c2ccn3C)c(C(F)(F)F)c1C(=O)Nc1ccnc(C(F)(F)F)c1 [Compound I-56]
< 500 nM	Cn1nc(-c2cccc3ncccc23)c(C(F)(F)F)c1C(=O)Nc1cnc(-n2nccn2)c(Cl)c1 [Compound I-58]
2500 to 10000 nM	Cn1cc2c(-c3nn(C)c(C(=O)Nc4ccnc(C(F)(F)F)c4)c3C(F)(F)F)cccc2n1 [Compound I-62]
< 500 nM	Cn1nc(-c2cccc3c(=O)[nH]ccc23)c(C(F)(F)F)c1C(=O)Nc1ccnc(C(F)(F)F)c1 [Compound I-63]
500 to 2500 nM	Cn1nc(-c2ccnc3ccsc23)c(C(F)(F)F)c1C(=O)Nc1ccnc(C(F)(F)F)c1 [Compound I-66]
> 10000 nM	Cn1nc(-c2cncc(C#N)c2)c(C(F)(F)F)c1C(=O)Nc1ccnc(C(F)(F)F)c1 [Compound I-70]
> 10000 nM	Cn1nc(-c2cnc3n2CCOC3)c(C(F)(F)F)c1C(=O)Nc1ccnc(C(F)(F)F)c1 [Compound I-71]
> 10000 nM	Cn1nc(-c2cnn3ccncc23)c(C(F)(F)F)c1C(=O)Nc1ccnc(C(F)(F)F)c1 [Compound I-74]
> 10000 nM	CN(C)c1cc(-c2nn(C)c(C(=O)Nc3ccnc(C(F)(F)F)c3)c2C(F)(F)F)ccn1 [Compound I-76]
> 10000 nM	Cc1cncc(-c2nn(C)c(C(=O)Nc3ccnc(C(F)(F)F)c3)c2C(F)(F)F)c1 [Compound I-80]
2500 to 10000 nM	Cn1nc(-c2cncc(F)c2)c(C(F)(F)F)c1C(=O)Nc1ccnc(C(F)(F)F)c1 [Compound I-81]
2500 to 10000 nM	Cn1nc(-c2ccc(F)nc2F)c(C(F)(F)F)c1C(=O)Nc1ccnc(C(F)(F)F)c1 [Compound I-83]
< 500 nM	Cn1nc(Nc2ccccc2)c(C(F)(F)F)c1C(=O)Nc1cnc(-n2nccn2)c(Cl)c1 [Compound I-86]
